# Test results published in EP0411751A1, “Renin inhibitory peptides” (Beecham Group p.l.c., priority 1989, dated 1991).
# Target: T1, human renin (Homo sapiens, UniProt P00797)
# T1 construct: from tissue; host or cells: human plasma from blood of healthy volunteers
# T1 sequence (P00797 67-406): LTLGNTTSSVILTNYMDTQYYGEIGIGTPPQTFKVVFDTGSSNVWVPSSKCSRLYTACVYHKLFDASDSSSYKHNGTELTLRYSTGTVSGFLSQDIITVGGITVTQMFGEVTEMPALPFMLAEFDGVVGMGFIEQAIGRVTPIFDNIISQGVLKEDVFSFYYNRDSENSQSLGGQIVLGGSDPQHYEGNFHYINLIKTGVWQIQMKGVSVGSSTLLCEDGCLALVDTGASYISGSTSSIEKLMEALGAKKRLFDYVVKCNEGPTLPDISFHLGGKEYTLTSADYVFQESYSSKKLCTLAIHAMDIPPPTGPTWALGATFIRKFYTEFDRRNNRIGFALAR
# Test: In vitro human renin inhibition (renin activity in human plasma, angiotensin I radioimmunoassay)
# Assay type: biochemical
# Details: angiotensin I difference between halves incubated at 37° and 4° for 2 h, linear regression of at least three concentrations, read-out: IC₅₀
# Method: In vitro human renin inhibition
# Renin inhibitory activity was estimated as the percentage change in renin activity in human plasma in the presence and absence of compound. The source of plasma was blood taken from healthy volunteers. Renin activity was defined by the difference in angiotensin I levels between two halves of a sample, one incubated at 37^o and the other at 4^o for 2 h. Angiotensin I levels were measured using a ¹²⁵I- angiotensin I radioimmunoassay kit (NEN/DuPont, Stevenage). Results were calculated as the mean of at least two, duplicate determinations and IC₅₀ values were calculated by linear regression analysis of at least three concentrations of compound.
row,IC50 [nM],SMILES
1,13,"CC(C)CNC(=O)C[C@H](O)[C@H](CC1CCCCC1)NC(=O)[C@H](CC(C)C)NC(=O)[C@H](Cc1ccccc1)NC(=O)CCN1C(=O)CS(=O)(=O)c2ccccc21 [Example E7, 2,3-Dihydro-1,1,3-trioxo-4H-1,4-benzothiazine-4-propanoyl-Phe-Leu-ACHPA isobutylamide .0.5H₂O]"
2,42,"CC(C)C[C@H](NC(=O)[C@H](Cc1ccccc1)NC(=O)CCN1C(=O)COc2ccc(C(=O)O)cc21)C(=O)N[C@@H](CC1CCCCC1)[C@@H](O)CC(=O)NCCCn1ccnc1 [Example E15, 6-Carboxy-2,3-dihydro-3-oxo-4H-1,4-benzoxazine-4-propanoyl-Phe-Leu-ACHPA 3-(1-imidazolyl)propylamide]"
3,47,"CC(C)CNC(=O)C[C@H](O)[C@H](CC1CCCCC1)NC(=O)[C@H](CC(C)C)NC(=O)[C@H](Cc1ccccc1)NC(=O)CC1CCOc2ccccc21 (stereo partly drawn) [Example E1, Chromanyl-4-acetyl-Phe-Leu-ACHPA isobutylamide .0.5H₂O]"
4,22,"CC(C)C[C@H](NC(=O)[C@H](Cc1ccccc1)NC(=O)CCN1C(=O)CCS(=O)(=O)c2ccccc21)C(=O)N[C@@H](CC1CCCCC1)[C@@H](O)CC(=O)NCCCn1ccnc1 [Example E19, 3,4-Dihydro-1,1,4-trioxo-1,5-benzothiazepine-5(2H)-propanoyl-Phe-Leu-ACHPA 3-(1-imidazolyl)propylamide]"
5,8,"CC(C)C[C@H](NC(=O)[C@H](Cc1ccccc1)NC(=O)CCN1C(=O)CCSc2ccccc21)C(=O)N[C@@H](CC1CCCCC1)[C@@H](O)CC(=O)NCCCn1ccnc1 [Example E18, 3,4-Dihydro-4-oxo-1,5-benzothiazepine-5(2H)-propanoyl-Phe-Leu-ACHPA 3-(1-imidazolyl)propylamide.0.5(CHCl₃)]"
6,25,"CC(C)C[C@H](NC(=O)[C@H](Cc1ccccc1)NC(=O)CCN1C(=O)COc2ccc(CN)cc21)C(=O)N[C@@H](CC1CCCCC1)[C@@H](O)CC(=O)NCCCn1ccnc1 [Example E11, 6-(Aminomethyl)-2,3-dihydro-3-oxo-4H-1,4-benzoxazine-4-propanoyl-Phe-Leu-ACHPA 3-(1imidazolyl)propylamide .3CF₃CO₂H]"
7,220,"Cc1ccc2c(c1)N(CC(=O)N[C@@H](Cc1ccccc1)C(=O)N[C@@H](CC(C)C)C(=O)N[C@@H](CC1CCCCC1)[C@@H](O)CC(=O)NCC(C)C)C(=O)CO2 [Example E2, 2,3-Dihydro-6-methyl-3-oxo-4H-1,4-benzoxazine-4-acetyl-Phe-Leu-ACHPA isobutylamide .H₂O]"
